Laboratory results from the supplement of paper PMC10307832.

Legend:
Test in all cases: relative viability (nuclei count vs DMSO), 5 days (fraction); higher = more cells survive
COR-L 105 = test system: COR-L 105
In short: (§1)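 Cells from lung cancer lines were seeded into 1536-well plates and, one day later, dosed by pin tool. Treatments were either a single drug or a fixed dose of an anchor drug with five library-drug doses (not always all listed) in √10 steps. After 5 days, nuclei were stained in a one-step fixation (final 0.05% Triton X-100, 1% formaldehyde, 1 ug/ml Hoechst) and counted on 4× images, and relative viability is the treated-to-vehicle nuclei ratio, as the median of duplicate plates.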

NCI-H358 = test system: NCI-H358
In short: as §1

HOP-62 = test system: HOP-62
In short: as §1

HCC-44 = test system: HCC-44
In short: as §1

NCI-H2342 = test system: NCI-H2342
In short: as §1

201T = test system: 201T
In short: as §1

NCI-H1437 = test system: NCI-H1437
In short: as §1

NCI-H1666 = test system: NCI-H1666
In short: as §1

EKVX = test system: EKVX
In short: as §1

SW 1573 = test system: SW 1573
In short: as §1

PC-3 [JPC-3] = test system: PC-3 [JPC-3]
In short: as §1

NCI-H2087 = test system: NCI-H2087
In short: as §1

NCI-H1395 = test system: NCI-H1395
In short: as §1

NCI-H1975 = test system: NCI-H1975
In short: as §1

NCI-H647 = test system: NCI-H647
In short: as §1

NCI-H2085 = test system: NCI-H2085
In short: as §1

BEN = test system: BEN
In short: as §1

LU99A = test system: LU99A
In short: as §1

EPLC-272H = test system: EPLC-272H
In short: as §1

H3255 = test system: H3255
In short: as §1

HCC-827 = test system: HCC-827
In short: as §1

LCLC-97TM1 = test system: LCLC-97TM1
In short: as §1

LOU-NH91 = test system: LOU-NH91
In short: as §1

## C=C1C(=O)O[C@@H](CCCCCCCC)[C@@H]1C(=O)O [C-75] + CCNC(=O)c1noc(-c2cc(C(C)C)c(O)cc2O)c1-c1ccc(CN2CCOCC2)cc1 [Luminespib] (partner 0.01 µM)
COR-L 105; first compound 0.08 µM
  relative viability: 0.688
COR-L 105; first compound 0.253 µM
  relative viability: 0.584
COR-L 105; first compound 0.8 µM
  relative viability: 0.817
COR-L 105; first compound 2.53 µM
  relative viability: 0.815
COR-L 105; first compound 8 µM
  relative viability: 0.638
NCI-H358; first compound 0.08 µM
  relative viability: 0.338
NCI-H358; first compound 0.253 µM
  relative viability: 0.247
NCI-H358; first compound 0.8 µM
  relative viability: 0.314
NCI-H358; first compound 2.53 µM
  relative viability: 0.355
NCI-H358; first compound 8 µM
  relative viability: 0.224
HOP-62; first compound 0.08 µM
  relative viability: 0.858
HOP-62; first compound 0.253 µM
  relative viability: 0.945
HOP-62; first compound 0.8 µM
  relative viability: 0.902
HOP-62; first compound 2.53 µM
  relative viability: 0.909
HOP-62; first compound 8 µM
  relative viability: 0.801
HCC-44; first compound 0.08 µM
  relative viability: 0.966
HCC-44; first compound 0.253 µM
  relative viability: 0.984
HCC-44; first compound 0.8 µM
  relative viability: 1
HCC-44; first compound 2.53 µM
  relative viability: 0.89
HCC-44; first compound 8 µM
  relative viability: 0.729
NCI-H2342; first compound 0.08 µM
  relative viability: 0.798
NCI-H2342; first compound 0.253 µM
  relative viability: 0.802
NCI-H2342; first compound 0.8 µM
  relative viability: 0.689
NCI-H2342; first compound 2.53 µM
  relative viability: 0.743
NCI-H2342; first compound 8 µM
  relative viability: 0.68
201T; first compound 0.08 µM
  relative viability: 1.07
201T; first compound 0.253 µM
  relative viability: 1.08
201T; first compound 0.8 µM
  relative viability: 1.07
201T; first compound 2.53 µM
  relative viability: 1.04
201T; first compound 8 µM
  relative viability: 1.06
NCI-H1437; first compound 0.08 µM
  relative viability: 1.15
NCI-H1437; first compound 0.253 µM
  relative viability: 1.27
NCI-H1437; first compound 0.8 µM
  relative viability: 1.11
NCI-H1437; first compound 2.53 µM
  relative viability: 1.13
NCI-H1437; first compound 8 µM
  relative viability: 1.12
NCI-H1666; first compound 0.08 µM
  relative viability: 0.961
NCI-H1666; first compound 0.253 µM
  relative viability: 1.04
NCI-H1666; first compound 0.8 µM
  relative viability: 1
NCI-H1666; first compound 2.53 µM
  relative viability: 0.934
NCI-H1666; first compound 8 µM
  relative viability: 0.827
EKVX; first compound 0.08 µM
  relative viability: 0.867
EKVX; first compound 0.253 µM
  relative viability: 0.984
EKVX; first compound 0.8 µM
  relative viability: 0.788
EKVX; first compound 8 µM
  relative viability: 0.891
SW 1573; first compound 0.08 µM
  relative viability: 0.168
SW 1573; first compound 0.253 µM
  relative viability: 0.254
SW 1573; first compound 0.8 µM
  relative viability: 0.207
SW 1573; first compound 2.53 µM
  relative viability: 0.216
SW 1573; first compound 8 µM
  relative viability: 0.157
PC-3 [JPC-3]; first compound 0.08 µM
  relative viability: 0.678
PC-3 [JPC-3]; first compound 0.253 µM
  relative viability: 0.667
PC-3 [JPC-3]; first compound 0.8 µM
  relative viability: 0.739
PC-3 [JPC-3]; first compound 2.53 µM
  relative viability: 0.533
PC-3 [JPC-3]; first compound 8 µM
  relative viability: 0.895
NCI-H2087; first compound 0.08 µM
  relative viability: 0.162
NCI-H2087; first compound 0.253 µM
  relative viability: 0.218
NCI-H2087; first compound 0.8 µM
  relative viability: 0.141
NCI-H2087; first compound 2.53 µM
  relative viability: 0.166
NCI-H2087; first compound 8 µM
  relative viability: 0.217
NCI-H1395; first compound 0.08 µM
  relative viability: 0.613
NCI-H1395; first compound 0.253 µM
  relative viability: 0.574
NCI-H1395; first compound 0.8 µM
  relative viability: 0.713
NCI-H1395; first compound 2.53 µM
  relative viability: 0.755
NCI-H1395; first compound 8 µM
  relative viability: 0.686
NCI-H1975; first compound 0.08 µM
  relative viability: 0.161
NCI-H1975; first compound 0.253 µM
  relative viability: 0.195
NCI-H1975; first compound 0.8 µM
  relative viability: 0.122
NCI-H1975; first compound 2.53 µM
  relative viability: 0.13
NCI-H1975; first compound 8 µM
  relative viability: 0.252
NCI-H647; first compound 0.08 µM
  relative viability: 0.114
NCI-H647; first compound 0.253 µM
  relative viability: 0.256
NCI-H647; first compound 0.8 µM
  relative viability: 0.183
NCI-H647; first compound 2.53 µM
  relative viability: 0.117
NCI-H647; first compound 8 µM
  relative viability: 0.13
NCI-H2085; first compound 0.08 µM
  relative viability: 0.427
NCI-H2085; first compound 0.253 µM
  relative viability: 0.416
NCI-H2085; first compound 0.8 µM
  relative viability: 0.38
NCI-H2085; first compound 2.53 µM
  relative viability: 0.366
NCI-H2085; first compound 8 µM
  relative viability: 0.417
BEN; first compound 0.08 µM
  relative viability: 0.351
BEN; first compound 0.253 µM
  relative viability: 0.302
BEN; first compound 0.8 µM
  relative viability: 0.302
BEN; first compound 8 µM
  relative viability: 0.181
LU99A; first compound 0.08 µM
  relative viability: 0.209
LU99A; first compound 0.253 µM
  relative viability: 0.297
LU99A; first compound 0.8 µM
  relative viability: 0.251
LU99A; first compound 2.53 µM
  relative viability: 0.252
LU99A; first compound 8 µM
  relative viability: 0.286
EPLC-272H; first compound 0.08 µM
  relative viability: 0.302
EPLC-272H; first compound 0.253 µM
  relative viability: 0.308
EPLC-272H; first compound 0.8 µM
  relative viability: 0.297
EPLC-272H; first compound 2.53 µM
  relative viability: 0.202
EPLC-272H; first compound 8 µM
  relative viability: 0.159
H3255; first compound 0.08 µM
  relative viability: 0.935
H3255; first compound 0.253 µM
  relative viability: 1.02
H3255; first compound 0.8 µM
  relative viability: 0.794
H3255; first compound 2.53 µM
  relative viability: 0.723
H3255; first compound 8 µM
  relative viability: 0.977
HCC-827; first compound 0.08 µM
  relative viability: 0.519
HCC-827; first compound 0.253 µM
  relative viability: 0.703
HCC-827; first compound 0.8 µM
  relative viability: 0.825
HCC-827; first compound 2.53 µM
  relative viability: 0.42
HCC-827; first compound 8 µM
  relative viability: 0.566
LCLC-97TM1; first compound 0.08 µM
  relative viability: 0.731
LCLC-97TM1; first compound 0.253 µM
  relative viability: 0.808
LCLC-97TM1; first compound 0.8 µM
  relative viability: 0.852
LCLC-97TM1; first compound 2.53 µM
  relative viability: 0.452
LCLC-97TM1; first compound 8 µM
  relative viability: 0.801
LOU-NH91; first compound 0.08 µM
  relative viability: 0.307
LOU-NH91; first compound 0.253 µM
  relative viability: 0.346
LOU-NH91; first compound 0.8 µM
  relative viability: 0.344
LOU-NH91; first compound 2.53 µM
  relative viability: 0.29
LOU-NH91; first compound 8 µM
  relative viability: 0.32
